# Assay results as given in patent US20250059174A1, “Pharmaceutical Compounds and Compositions as C-Kit Kinase Inhibitors” (Enanta Pharmaceuticals, Inc., priority 2023, published 2025).
# Columns and labels:
# [1] = target: Recombinant human c-KIT kinase (Homo sapiens (Human), UniProt P10721); assay: c-KIT kinase chemiluminescence assay (ADP-Glo); format: biochemical; conditions: ATP 50 μM
# Summary of the method: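 Recombinant human c-KIT preincubated 30 min at RT in 40 mM Tris pH 7.5, 20 mM MgCl2, 0.1 mg/mL BSA, 50 μM DTT, then reacted 2 h at RT with ATP and polyEY substrate. ADP-Glo luminescence readout; activity normalized to high/low controls, IC50 and Hill coefficient from inhibitor-versus-normalized-response fit.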
# M-07e cells = assay: M-07e cellular assay (SCF-mediated cell proliferation); format: cell-based; conditions: Homo sapiens, 72 hours, CellTiter Glo
# Summary of the method: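 CellTiter Glo luminescence after 72 h compound exposure in SCF (EC90)-stimulated M-07e cells expressing endogenous human c-KIT.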
# Chain of Recombinant human c-KIT kinase (P10721 26-976): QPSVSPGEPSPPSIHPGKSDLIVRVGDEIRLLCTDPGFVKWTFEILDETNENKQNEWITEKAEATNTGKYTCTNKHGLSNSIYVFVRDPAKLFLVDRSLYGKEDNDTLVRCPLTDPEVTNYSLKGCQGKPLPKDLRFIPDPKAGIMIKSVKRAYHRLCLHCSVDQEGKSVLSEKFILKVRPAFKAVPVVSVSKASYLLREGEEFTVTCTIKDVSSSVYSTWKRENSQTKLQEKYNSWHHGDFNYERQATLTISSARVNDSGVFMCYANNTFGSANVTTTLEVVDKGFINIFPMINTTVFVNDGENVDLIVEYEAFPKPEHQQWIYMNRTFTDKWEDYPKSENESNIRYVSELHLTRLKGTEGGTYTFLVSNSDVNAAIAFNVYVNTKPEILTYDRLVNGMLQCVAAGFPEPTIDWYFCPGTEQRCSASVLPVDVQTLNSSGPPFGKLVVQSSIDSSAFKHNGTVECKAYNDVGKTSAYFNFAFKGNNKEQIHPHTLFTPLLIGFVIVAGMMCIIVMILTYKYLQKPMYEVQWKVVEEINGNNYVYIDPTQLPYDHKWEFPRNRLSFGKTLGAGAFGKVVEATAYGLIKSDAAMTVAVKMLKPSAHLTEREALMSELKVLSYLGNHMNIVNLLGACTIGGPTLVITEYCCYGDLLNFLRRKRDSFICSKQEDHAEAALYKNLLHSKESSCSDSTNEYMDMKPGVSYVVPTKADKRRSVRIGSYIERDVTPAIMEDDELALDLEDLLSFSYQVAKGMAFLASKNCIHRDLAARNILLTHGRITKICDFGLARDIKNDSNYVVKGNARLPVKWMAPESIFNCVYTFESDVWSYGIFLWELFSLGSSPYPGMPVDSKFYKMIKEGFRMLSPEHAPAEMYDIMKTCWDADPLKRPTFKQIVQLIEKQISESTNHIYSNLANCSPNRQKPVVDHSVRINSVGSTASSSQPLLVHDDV
Compound,IC50 [1],EC50 (M-07e cells)
Cc1cc(F)c(-c2noc([C@H]3C[C@@H](OC(F)(F)F)C3)n2)cc1NC(=O)c1cnn2ccc(N3CC4(COC4)C3)cc12 [Example 281-57],< 0.1 µM,0.1 to 1 µM
Cc1cc(F)c(-c2noc([C@H]3C[C@@H]3C(F)F)n2)cc1NC(=O)c1cnn2ccc(N3CC4(COC4)C3)cc12 [Example 281-59],< 0.1 µM,0.1 to 1 µM
Cc1ncc(-c2noc(C3C[C@@H]3C(F)F)n2)cc1NC(=O)c1cnn2ccc(N3CC4(COC4)C3)cc12 (some centres unmarked) [Example 281-60],0.1 to 1 µM,0.1 to 1 µM
Cc1ccc(-c2noc(C3CN(C(=O)N4CC(F)(F)C4)C3)n2)cc1NC(=O)c1cnn2ccc(N3CC4(COC4)C3)cc12 [Example 281-61],> 1 µM,0.1 to 1 µM
Cc1ncc(-c2noc([C@H]3C[C@@H](C(F)(F)F)C3)n2)cc1NC(=O)c1cnn2ccc(N3CC4(C3)CC(O)(C(F)F)C4)cc12 [Example 281-62],< 0.1 µM,< 0.1 µM
Cc1ncc(-c2noc([C@H]3C[C@@H]3F)n2)cc1NC(=O)c1cnn2ccc(N3CC4(C3)CC(O)(C(F)F)C4)cc12 [Example 281-63],0.1 to 1 µM,< 0.1 µM
Cc1ncc(-c2noc([C@H]3C[C@@H]3C(F)F)n2)cc1NC(=O)c1cnn2ccc(N3CC4(C3)CC(O)(C(F)F)C4)cc12 [Example 281-64],< 0.1 µM,< 0.1 µM
Cc1ccc(-c2noc([C@H]3C[C@@H]3F)n2)c(F)c1NC(=O)c1cnn2ccc(N3CC4(COC4)C3)cc12 [Example 281-65],< 0.1 µM,< 0.1 µM
Cc1ncc(-c2noc([C@H]3C[C@H](C(F)(F)F)C3)n2)cc1NC(=O)c1cnn2ccc(N3CC4(COC4)C3)cc12 [Example 281-66],0.1 to 1 µM,< 0.1 µM
Cc1ncc(-c2noc(C3CC(F)(F)C3)n2)cc1NC(=O)c1cnn2ccc(N3CC4(COC4)C3)cc12 [Example 281-67],0.1 to 1 µM,< 0.1 µM
Cc1ncc(-c2noc([C@H]3C[C@H](C(F)(F)F)C3)n2)cc1NC(=O)c1cnn2ccc(N3CC4(C3)CC(O)(C(F)F)C4)cc12 [Example 281-68],< 0.1 µM,< 0.1 µM
Cc1ncc(-c2noc(C3CC(F)(F)C3)n2)cc1NC(=O)c1cnn2ccc(N3CC4(C3)CC(O)(C(F)F)C4)cc12 [Example 281-69],0.1 to 1 µM,< 0.1 µM
Cc1nnc(N2CC(c3nc(-c4cnc(C)c(NC(=O)c5cnn6ccc(N7CC8(C7)CC(O)(C(F)F)C8)cc56)c4)no3)C2)o1 [Example 281-70],> 1 µM,> 1 µM
Cc1nnc(N2CC(c3nc(-c4cnc(C)c(NC(=O)c5cnn6ccc(N7CC8(COC8)C7)cc56)c4)no3)C2)o1 [Example 281-71],> 1 µM,> 1 µM
CC(=O)N1CCC(c2nc(-c3cnc(C)c(NC(=O)c4cnn5ccc(N6CC7(C6)CC(O)(C(F)F)C7)cc45)c3)no2)CC1 [Example 281-72],> 1 µM,> 1 µM
CC(=O)N1CC2(CC(c3nc(-c4cnc(C)c(NC(=O)c5cnn6ccc(N7CC8(C7)CC(O)(C(F)F)C8)cc56)c4)no3)C2)C1 [Example 281-73],> 1 µM,> 1 µM
CC(=O)N1CCC(c2nc(-c3cnc(C)c(NC(=O)c4cnn5ccc(N6CC7(COC7)C6)cc45)c3)no2)C1 (centres unmarked) [Example 281-74],> 1 µM,> 1 µM
CC(=O)N1CCC(c2nc(-c3cnc(C)c(NC(=O)c4cnn5ccc(N6CC7(COC7)C6)cc45)c3)no2)CC1 [Example 281-75],> 1 µM,> 1 µM
CC(=O)N1CC2(CC(c3nc(-c4cnc(C)c(NC(=O)c5cnn6ccc(N7CC8(COC8)C7)cc56)c4)no3)C2)C1 [Example 281-76],> 1 µM,> 1 µM
COC(=O)N1CC(c2nc(-c3cnc(C)c(NC(=O)c4cnn5ccc(N6CC7(COC7)C6)cc45)c3)no2)C1 [Example 281-77],0.1 to 1 µM,0.1 to 1 µM
COC(=O)N1CC(c2nc(-c3cnc(C)c(NC(=O)c4cnn5ccc(N6CC7(C6)CC(O)(C(F)F)C7)cc45)c3)no2)C1 [Example 281-78],< 0.1 µM,< 0.1 µM
Cc1ncc(-c2noc(C3CN(C(=O)[C@H]4C[C@@H]4F)C3)n2)cc1NC(=O)c1cnn2ccc(N3CC4(C3)CC(O)(C(F)F)C4)cc12 [Example 281-79],> 1 µM,> 1 µM
Cc1ncc(-c2noc(C3CN(C(=O)[C@H]4C[C@@H]4F)C3)n2)cc1NC(=O)c1cnn2ccc(N3CC4(COC4)C3)cc12 [Example 281-80],> 1 µM,> 1 µM
Cc1ccc(-c2noc(N3CC(F)(F)C3)n2)cc1NC(=O)c1cnn2ccc(N3CC4(COC4)C3)cc12 [Example 281-81],0.1 to 1 µM,< 0.1 µM
Cc1ccc(-c2noc(N3CC(O)(C(F)(F)F)C3)n2)cc1NC(=O)c1cnn2ccc(N3CC4(COC4)C3)cc12 [Example 281-82],< 0.1 µM,< 0.1 µM

Compound,IC50 [1],EC50 (M-07e cells)
Cc1ccc(-c2noc(N3CCOCC3)n2)cc1NC(=O)c1cnn2ccc(N3CC4(COC4)C3)cc12 [Example 281-83],0.1 to 1 µM,< 0.1 µM
Cc1ncc(-c2noc(C3CN(C(=O)C4(F)CC4)C3)n2)cc1NC(=O)c1cnn2ccc(N3CC4(C3)CC(O)(C(F)F)C4)cc12 [Example 281-84],> 1 µM,0.1 to 1 µM
Cc1ncc(-c2noc(C3CN(C(=O)C4(F)CC4)C3)n2)cc1NC(=O)c1cnn2ccc(N3CC4(COC4)C3)cc12 [Example 281-85],> 1 µM,0.1 to 1 µM
Cc1ncc(-c2noc(C3CN(C(=O)C4CC4)C3)n2)cc1NC(=O)c1cnn2ccc(N3CC4(C3)CC(O)(C(F)F)C4)cc12 [Example 281-86],> 1 µM,> 1 µM
Cc1ncc(-c2noc(C3CN(C(=O)C4CC4)C3)n2)cc1NC(=O)c1cnn2ccc(N3CC4(COC4)C3)cc12 [Example 281-87],> 1 µM,> 1 µM
Cc1ncc(-c2noc(C3CN(CC(F)(F)F)C3)n2)cc1NC(=O)c1cnn2ccc(N3CC4(C3)CC(O)(C(F)F)C4)cc12 [Example 281-88],0.1 to 1 µM,< 0.1 µM
Cc1ncc(-c2noc([C@H]3CC3(F)F)n2)cc1NC(=O)c1cnn2ccc(N3CC4(C3)CC(O)(C(F)F)C4)cc12 [Example 281-89],0.1 to 1 µM,< 0.1 µM
Cc1ncc(-c2noc(C3CN(C(=O)OC(C)(C)C)C3)n2)cc1NC(=O)c1cnn2ccc(N3CC4(C3)CC(O)(C(F)F)C4)cc12 [Example 281-90],> 1 µM,0.1 to 1 µM
Cc1ncc(-c2noc(C3CN(C(=O)[C@H]4CC4(F)F)C3)n2)cc1NC(=O)c1cnn2ccc(N3CC4(C3)CC(O)(C(F)F)C4)cc12 [Example 281-91],> 1 µM,> 1 µM
Cc1ccc(-c2noc(C3CCN(C(=O)[C@H]4C[C@@H]4F)C3)n2)cc1NC(=O)c1cnn2ccc(N3CC4(COC4)C3)cc12 (some centres unmarked) [Example 281-92],0.1 to 1 µM,0.1 to 1 µM
Cc1ccc(-c2noc(C3CCN(C(=O)[C@H]4C[C@@H]4F)CC3)n2)cc1NC(=O)c1cnn2ccc(N3CC4(COC4)C3)cc12 [Example 281-93],0.1 to 1 µM,0.1 to 1 µM
O=C(Nc1cc(-c2noc([C@H]3C[C@@H]3F)n2)ccc1C1CC1)c1cnn2ccc(N3CC4(COC4)C3)cc12 [Example 281-94],> 1 µM,> 1 µM
Cc1sc(-c2noc([C@H]3C[C@@H]3F)n2)cc1NC(=O)c1cnn2ccc(N3CC4(C3)CC(O)(C(F)F)C4)cc12 [Example 281-95],0.1 to 1 µM,< 0.1 µM
Cc1ccc(-c2noc(C3CCN(C(=O)[C@H]4C[C@@H]4F)C3)n2)cc1NC(=O)c1cnn2ccc(N3CC4(C3)CC(O)(C(F)F)C4)cc12 (some centres unmarked) [Example 281-96],0.1 to 1 µM,0.1 to 1 µM
Cc1ccc(-c2noc(C3CCN(C(=O)[C@H]4C[C@@H]4F)CC3)n2)cc1NC(=O)c1cnn2ccc(N3CC4(C3)CC(O)(C(F)F)C4)cc12 [Example 281-97],0.1 to 1 µM,0.1 to 1 µM
Cc1ccc(-c2noc(N3CC(F)(F)C3)n2)cc1NC(=O)c1cnn2ccc(N3CC4(C3)CC(O)(C(F)F)C4)cc12 [Example 281-98],< 0.1 µM,< 0.1 µM
Cc1ccc(-c2noc(N3CC(O)(C(F)(F)F)C3)n2)cc1NC(=O)c1cnn2ccc(N3CC4(C3)CC(O)(C(F)F)C4)cc12 [Example 281-99],< 0.1 µM,< 0.1 µM
Cc1ccc(-c2noc(N3CCOCC3)n2)cc1NC(=O)c1cnn2ccc(N3CC4(C3)CC(O)(C(F)F)C4)cc12 [Example 281-100],0.1 to 1 µM,< 0.1 µM
Cc1ncc(-c2noc(C3(F)CN(C(=O)OC(C)(C)C)C3)n2)cc1NC(=O)c1cnn2ccc(N3CC4(C3)CC(O)(C(F)F)C4)cc12 [Example 281-101],> 1 µM,0.1 to 1 µM
Cc1ncc(-c2noc(C3(F)CN(C(=O)C(C)(F)F)C3)n2)cc1NC(=O)c1cnn2ccc(N3CC4(C3)CC(O)(C(F)F)C4)cc12 [Example 281-103],0.1 to 1 µM,> 1 µM
COC(=O)N1CC(F)(c2nc(-c3cnc(C)c(NC(=O)c4cnn5ccc(N6CC7(C6)CC(O)(C(F)F)C7)cc45)c3)no2)C1 [Example 281-104],> 1 µM,> 1 µM
Cc1ncc(-c2noc(C3(F)CN(CC(F)F)C3)n2)cc1NC(=O)c1cnn2ccc(N3CC4(C3)CC(O)(C(F)F)C4)cc12 [Example 281-105],0.1 to 1 µM,0.1 to 1 µM
Cc1ccc(-c2noc(C3CC4(C3)CN(C(=O)[C@H]3C[C@@H]3F)C4)n2)cc1NC(=O)c1cnn2ccc(N3CC4(COC4)C3)cc12 [Example 281-106],0.1 to 1 µM,0.1 to 1 µM
Cc1ccc(-c2noc(C3CC4(C3)CN(C(=O)[C@H]3C[C@@H]3F)C4)n2)cc1NC(=O)c1cnn2ccc(N3CC4(C3)CC(O)(C(F)F)C4)cc12 [Example 281-107],0.1 to 1 µM,0.1 to 1 µM
